Data reported in US10435371B2, “Multifunctional aminoquinoline therapeutic agent” (LOHOCLA RESEARCH CORPORATION, priority 2014, dated 2019).

Key:
[1] = tested on: rats treated with Complete Freund's Adjuvant; test: Combination with morphine, CFA-induced pain, mechanical pain threshold; type: in vivo, rat; conditions: FIG. 15 Panel A
[2] = target: β1 (Adrenergic Rs (beta adrenergic)) (Homo sapiens, UniProt P08588); test: PDSP radioligand binding
[3] = tested on: rats treated with Complete Freund's Adjuvant; test: Prevention of CFA-induced neuropathic pain; type: in vivo, rat; conditions: 50 mg/kg oral, four treatments at 12-hour intervals starting after CFA injection; FIG. 13
Method: (§1) This example illustrates that treatment of animals with DCUKA following insult, but prior to development of neuropathic pain, can prevent the development of the pain. Rats were treated with cisplatin or CFA, and mechanical pain threshold was measured, as described under Example 5.
Prevention of CFA-Induced Neuropathic Pain by DCUKA. After baseline measurement of the mechanical pain threshold, rats were treated with CFA as described earlier. Following the CFA injection, rats were given vehicle (canola oil/gelatin) (n=7) or 50 mg/kg DCUKA (n=7) orally by intragastric gavage. Rats then received three more treatments with vehicle or DCUKA at 12-hour intervals. At 60 hours after CFA treatment, the mechanical pain threshold was again tested.

[4] = target: M2 (Muscarinic Cholinergic Rs) (Homo sapiens, UniProt P08172); test: PDSP radioligand binding
M2 (Muscarinic Cholinergic Rs), sequence (P08172 whole entry): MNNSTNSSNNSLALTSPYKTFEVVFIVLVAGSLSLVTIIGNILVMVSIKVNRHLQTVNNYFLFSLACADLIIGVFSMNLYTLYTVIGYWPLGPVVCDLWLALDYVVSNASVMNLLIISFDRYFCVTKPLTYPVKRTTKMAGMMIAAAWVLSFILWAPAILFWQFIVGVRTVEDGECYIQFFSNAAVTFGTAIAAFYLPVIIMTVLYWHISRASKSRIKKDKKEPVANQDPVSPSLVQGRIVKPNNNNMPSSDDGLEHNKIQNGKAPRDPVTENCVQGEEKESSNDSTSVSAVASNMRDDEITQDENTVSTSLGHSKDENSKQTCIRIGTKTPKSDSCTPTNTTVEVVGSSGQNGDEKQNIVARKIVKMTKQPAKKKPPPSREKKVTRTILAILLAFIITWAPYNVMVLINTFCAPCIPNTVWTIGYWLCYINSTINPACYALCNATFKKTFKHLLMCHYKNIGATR

[5] = tested on: rats treated with Complete Freund's Adjuvant; test: Naltrindole reversal of the effect of DCUKA on CFA-induced neuropathic pain; type: in vivo, rat; conditions: DCUKA 50 mg/kg oral plus intraplantar saline, 2 days after CFA; FIG. 12
Method: Rats were tested for baseline mechanical pain threshold (von Frey test) and given an intraplantar injection of Complete Freunds Adjuvant (CFA) in the left hind paw.

[6] = target: M1 (Muscarinic Cholinergic Rs) (Homo sapiens, UniProt P11229); test: PDSP radioligand binding
M1 (Muscarinic Cholinergic Rs), sequence (P11229 whole entry): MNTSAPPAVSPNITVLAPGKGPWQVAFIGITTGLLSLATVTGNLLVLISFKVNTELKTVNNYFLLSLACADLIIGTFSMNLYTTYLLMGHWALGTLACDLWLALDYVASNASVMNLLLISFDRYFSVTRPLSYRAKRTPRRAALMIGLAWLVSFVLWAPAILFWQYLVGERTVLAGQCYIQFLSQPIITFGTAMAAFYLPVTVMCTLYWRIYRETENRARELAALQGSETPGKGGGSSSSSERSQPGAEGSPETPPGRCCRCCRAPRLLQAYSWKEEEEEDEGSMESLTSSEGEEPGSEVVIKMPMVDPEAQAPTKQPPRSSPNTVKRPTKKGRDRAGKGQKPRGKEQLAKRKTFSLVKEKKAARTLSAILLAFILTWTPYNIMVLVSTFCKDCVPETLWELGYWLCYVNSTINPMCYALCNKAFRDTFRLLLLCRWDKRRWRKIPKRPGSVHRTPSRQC

[7] = tested on: rats treated with cisplatin; test: Reversal of cisplatin-induced neuropathic pain (von Frey mechanical pain threshold); type: in vivo, rat; conditions: 50 mg/kg oral
[8] = target: mGluR5 (Metabotropic Glutamate Rs) (Homo sapiens, UniProt P41594); test: PDSP radioligand binding
mGluR5 (Metabotropic Glutamate Rs), sequence (P41594 21-1212): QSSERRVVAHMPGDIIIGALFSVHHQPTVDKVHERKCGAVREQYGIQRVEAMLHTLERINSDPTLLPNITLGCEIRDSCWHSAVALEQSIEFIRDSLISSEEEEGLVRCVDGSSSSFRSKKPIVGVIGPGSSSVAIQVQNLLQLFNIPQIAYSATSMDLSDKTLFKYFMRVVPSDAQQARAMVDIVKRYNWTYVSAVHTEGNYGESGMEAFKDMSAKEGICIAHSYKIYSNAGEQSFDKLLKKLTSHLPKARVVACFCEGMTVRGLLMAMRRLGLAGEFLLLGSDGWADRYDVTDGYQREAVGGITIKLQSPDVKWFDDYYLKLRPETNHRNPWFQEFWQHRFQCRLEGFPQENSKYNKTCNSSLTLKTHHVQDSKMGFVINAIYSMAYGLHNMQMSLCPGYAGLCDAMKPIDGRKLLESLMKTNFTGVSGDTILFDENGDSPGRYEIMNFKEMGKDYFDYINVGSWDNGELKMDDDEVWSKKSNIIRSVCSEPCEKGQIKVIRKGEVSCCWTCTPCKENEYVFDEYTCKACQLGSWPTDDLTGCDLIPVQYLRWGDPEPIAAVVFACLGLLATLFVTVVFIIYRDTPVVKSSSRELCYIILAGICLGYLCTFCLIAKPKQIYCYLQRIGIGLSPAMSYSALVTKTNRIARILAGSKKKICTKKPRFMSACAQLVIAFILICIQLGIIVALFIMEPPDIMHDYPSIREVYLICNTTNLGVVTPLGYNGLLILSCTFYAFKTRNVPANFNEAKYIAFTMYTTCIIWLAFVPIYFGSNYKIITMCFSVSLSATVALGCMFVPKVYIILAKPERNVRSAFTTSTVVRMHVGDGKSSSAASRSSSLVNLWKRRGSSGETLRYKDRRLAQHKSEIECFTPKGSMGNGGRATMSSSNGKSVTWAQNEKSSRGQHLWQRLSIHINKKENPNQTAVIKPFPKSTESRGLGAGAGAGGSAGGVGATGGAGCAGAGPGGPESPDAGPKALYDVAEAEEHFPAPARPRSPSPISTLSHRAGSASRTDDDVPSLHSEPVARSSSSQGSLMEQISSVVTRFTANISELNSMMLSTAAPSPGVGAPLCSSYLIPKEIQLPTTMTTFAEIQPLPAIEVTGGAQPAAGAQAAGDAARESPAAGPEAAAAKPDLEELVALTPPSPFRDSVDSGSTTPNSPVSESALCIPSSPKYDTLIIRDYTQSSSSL

CB1 Receptor = target: T1, CB1 Receptor (Homo sapiens, UniProt P21554); test: PDSP radioligand displacement, [^3H]CP55940; design: species or system rat; conditions: read-out: Binding constant Ki, CB1 Receptor
T1 construct: expressed in transfected cells

[9] = target: T2, GABA-A receptors (α1, β2, γ2s subunits) (UniProt P18508+P47870+P62813); test: Two-electrode voltage clamp, GABA-A receptors expressed in Xenopus oocytes; type: cell-based, rat α1 and γ2s, human β2; conditions: FIG. 4A
T2 construct: expressed in transfected cells; host or cells: Xenopus laevis oocytes injected with capped cRNAs (α1:β2:γ2s 2:2:20 ng)
T2 sequence (P62813 28-455): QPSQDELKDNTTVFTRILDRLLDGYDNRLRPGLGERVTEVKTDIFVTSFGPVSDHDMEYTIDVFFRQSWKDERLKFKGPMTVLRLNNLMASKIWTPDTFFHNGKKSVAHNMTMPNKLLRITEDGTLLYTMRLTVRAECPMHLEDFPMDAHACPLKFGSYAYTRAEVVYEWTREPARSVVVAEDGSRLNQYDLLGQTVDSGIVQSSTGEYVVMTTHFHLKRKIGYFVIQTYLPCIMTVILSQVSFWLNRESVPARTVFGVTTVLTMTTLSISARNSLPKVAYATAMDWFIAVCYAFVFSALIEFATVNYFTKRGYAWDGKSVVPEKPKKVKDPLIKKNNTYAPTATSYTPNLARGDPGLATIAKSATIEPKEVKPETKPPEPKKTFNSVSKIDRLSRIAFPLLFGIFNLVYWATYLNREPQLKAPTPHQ
T2 sequence (P47870 26-474 isoform P47870-1 limits assumed): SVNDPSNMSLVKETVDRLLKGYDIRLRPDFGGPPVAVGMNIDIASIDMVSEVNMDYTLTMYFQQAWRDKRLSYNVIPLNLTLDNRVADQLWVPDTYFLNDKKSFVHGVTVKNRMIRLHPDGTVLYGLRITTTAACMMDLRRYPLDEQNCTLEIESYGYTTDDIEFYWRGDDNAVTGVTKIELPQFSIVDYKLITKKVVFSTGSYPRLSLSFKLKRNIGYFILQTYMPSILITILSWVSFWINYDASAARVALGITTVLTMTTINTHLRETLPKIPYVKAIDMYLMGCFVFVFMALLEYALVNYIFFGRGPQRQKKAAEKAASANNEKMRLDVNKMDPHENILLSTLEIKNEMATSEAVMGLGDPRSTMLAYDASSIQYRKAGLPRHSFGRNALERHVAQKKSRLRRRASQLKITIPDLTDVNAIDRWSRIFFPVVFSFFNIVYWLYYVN
T2 sequence (P18508 39-466): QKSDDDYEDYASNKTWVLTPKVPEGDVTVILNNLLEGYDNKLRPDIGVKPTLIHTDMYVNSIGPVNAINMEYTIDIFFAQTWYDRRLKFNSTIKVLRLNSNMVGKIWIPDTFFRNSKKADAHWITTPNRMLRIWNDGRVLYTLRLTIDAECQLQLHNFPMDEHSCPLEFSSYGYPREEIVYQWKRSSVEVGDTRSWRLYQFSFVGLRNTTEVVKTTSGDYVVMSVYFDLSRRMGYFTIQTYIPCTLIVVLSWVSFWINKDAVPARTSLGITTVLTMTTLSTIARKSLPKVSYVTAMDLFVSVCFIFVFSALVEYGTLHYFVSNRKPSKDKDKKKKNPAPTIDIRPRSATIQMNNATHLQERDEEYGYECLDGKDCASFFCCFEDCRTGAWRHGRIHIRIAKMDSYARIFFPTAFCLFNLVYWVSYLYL
Method: Xenopus laevis frogs were obtained from Nasco (Fort Atkinson, Wis., USA). The complementary DNAs encoding the GABAA subunits rat α1 and γ2s and human β2 were provided by Dr. M. H. Akabas and Dr. Paul Whiting, respectively. The in vitro transcription of α1, β2, and γ2s subunits was performed using mMessage mMachine® (Life Technologies, Grand Island, N.Y.). After isolation of Xenopus laevis oocytes, they were injected with capped complementary RNAs encoding α1, β2, and γ2s subunits in a ratio 2:2:20 ng. The injected oocytes were incubated at 15° C. in sterilized Barth's solution [MBS; composition: 88 mM NaCl, 1 mM KCl, 10 mM HEPES, 0.82 mM MgSO4, 2.4 mM NaHCO3, 0.91 mM CaCl2), and 0.33 mM Ca(NO3)2, pH 7.5] for 3-5 days before recording. All surgery was performed according to an approved institutional protocol. The responses of GABAARs expressed in oocytes were studied through two-electrode voltage clamp (Oocyte Clamp OC-725C, Warner Instruments, Hamden, Conn.), recording through a POWERLAB 4/30 system (ADInstruments, Colorado Springs, Colo.). The oocyte was placed in a chamber perfused with MBS, and voltage-clamped at −70 mV.

[10] = tested on: rats treated with streptozotocin; test: Combination with aspirin, STZ-induced neuropathic pain (von Frey); type: in vivo, rat; conditions: FIG. 16
Method: After administration of streptozotocin (STZ) as described in Example 5, rats were tested for allodynia using a von Frey apparatus. Sixty minutes prior to testing, rats were divided into four groups. Group 1 received vehicle; group 2 received DCUKA; group 3 received aspirin; and group 4 received a combination of DCUKA and aspirin.

MOR (μ opiate receptor) = MOR (μ opiate receptor) (Homo sapiens, UniProt P35372); test: PDSP radioligand binding, [^3H]DAMGO
[11] = tested on: rats treated with cisplatin; test: Prevention of cisplatin-induced neuropathic pain; type: in vivo, rat; conditions: 50 mg/kg intragastric twice daily for 14 days starting 1 h after first cisplatin injection; FIG. 14
Method: as §1
Prevention of Cisplatin-Induced Neuropathic Pain by DCUKA. One day after baseline measurement of the mechanical pain threshold, rats were injected i.p. with cisplatin. Cisplatin injections were again given on days 4, 8, and 12. Starting one hour after the first cisplatin injection, rats were given 50 mg/kg DCUKA or vehicle via intragastric gavage twice daily for 14 days. After the last treatment (day 15) the mechanical pain threshold was again tested. The pain threshold was then tested once weekly for 4 weeks, with no further treatments.

EP2 (Prostaglandin Rs) = EP2 (Prostaglandin Rs) (Homo sapiens, UniProt P43116); test: PDSP radioligand binding; conditions: Table 3, the 6th table r12c1; read-out: Ki, EP2 (lack of affinity)
EP2 (Prostaglandin Rs), sequence (P43116 whole entry): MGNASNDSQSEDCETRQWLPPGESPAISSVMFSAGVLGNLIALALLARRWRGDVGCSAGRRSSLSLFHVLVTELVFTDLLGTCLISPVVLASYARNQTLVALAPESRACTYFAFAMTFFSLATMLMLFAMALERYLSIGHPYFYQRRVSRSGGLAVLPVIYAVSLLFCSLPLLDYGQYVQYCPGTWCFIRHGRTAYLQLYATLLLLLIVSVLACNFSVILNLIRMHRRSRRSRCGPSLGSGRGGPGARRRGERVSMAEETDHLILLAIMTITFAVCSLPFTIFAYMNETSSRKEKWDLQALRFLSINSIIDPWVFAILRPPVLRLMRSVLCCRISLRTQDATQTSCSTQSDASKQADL

D1 (Dopamine Rs) = D1 (Dopamine Rs) (Homo sapiens, UniProt P21728); test: PDSP radioligand binding
5-HT2B (Serotonin Rs) = 5-HT2B (Serotonin Rs) (Homo sapiens, UniProt P41595); test: PDSP radioligand binding
5-HT2B (Serotonin Rs), sequence (P41595 whole entry): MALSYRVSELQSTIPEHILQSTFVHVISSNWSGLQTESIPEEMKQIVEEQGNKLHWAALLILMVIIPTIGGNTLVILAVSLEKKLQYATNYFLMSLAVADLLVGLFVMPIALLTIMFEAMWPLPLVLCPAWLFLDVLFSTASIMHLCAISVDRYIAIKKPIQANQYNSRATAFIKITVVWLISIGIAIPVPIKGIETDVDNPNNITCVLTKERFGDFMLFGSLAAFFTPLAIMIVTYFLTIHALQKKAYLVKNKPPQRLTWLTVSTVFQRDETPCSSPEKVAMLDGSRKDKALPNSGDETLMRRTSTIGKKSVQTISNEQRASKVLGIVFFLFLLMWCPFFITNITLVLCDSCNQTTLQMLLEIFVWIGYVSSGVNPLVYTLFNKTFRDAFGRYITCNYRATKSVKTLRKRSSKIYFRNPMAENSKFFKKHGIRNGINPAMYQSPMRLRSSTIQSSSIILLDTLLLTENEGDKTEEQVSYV

[12] = target: BDZ site, GABA-A Receptor; test: PDSP radioligand displacement, [^3H]Flunitrazepam; design: species or system rat; conditions: read-out: Binding constant Ki, BDZ site, GABA-A Receptor

β1 (Adrenergic Rs (beta adrenergic)), sequence (P08588 whole entry): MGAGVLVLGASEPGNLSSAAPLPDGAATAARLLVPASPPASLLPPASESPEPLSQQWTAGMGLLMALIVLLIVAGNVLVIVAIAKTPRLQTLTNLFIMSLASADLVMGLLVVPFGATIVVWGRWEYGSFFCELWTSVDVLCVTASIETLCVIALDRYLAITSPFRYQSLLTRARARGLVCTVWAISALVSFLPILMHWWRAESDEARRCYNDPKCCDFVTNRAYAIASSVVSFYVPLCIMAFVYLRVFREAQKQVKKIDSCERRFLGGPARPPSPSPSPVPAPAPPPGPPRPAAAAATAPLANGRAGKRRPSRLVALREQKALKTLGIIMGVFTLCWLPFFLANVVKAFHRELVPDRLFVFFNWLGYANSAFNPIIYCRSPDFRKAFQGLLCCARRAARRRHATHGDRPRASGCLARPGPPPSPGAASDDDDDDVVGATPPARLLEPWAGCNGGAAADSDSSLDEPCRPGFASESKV

With O=C(O)c1cc(NC(=O)N(c2ccccc2)c2ccccc2)c2c(Cl)cc(Cl)cc2n1 [DCUKA, 5,7-dichloro-4-(3,3-diphenylureido)quinoline-2-carboxylic acid] the “Analgesia, each agent alone at the dose used for the combination” value [1] was “ineffective in producing analgesia”, the “Reversal of CFA-induced pain, combination of DCUKA and morphine” value ([1]; doses ineffective alone, injected 30 min before test, 48 h after CFA) was “complete reversal of inflammation-induced chronic pain” and the Ki [2] was > 10 µM. The “Mechanical pain threshold at 60 hours after CFA, ratio to baseline” value [3] was “the threshold was not reduced”, the Ki [4] was > 10 µM and the Mechanical pain threshold [5] was “increased the pain threshold back to baseline level”. The Ki [6] was > 10 µM, the “Mechanical pain threshold, ratio to baseline” value ([7]; cisplatin i.p. 7 mg/kg total, day 14, 1 and 2 hours, FIG. 6) was “significantly reversed the drop in mechanical pain threshold” and the “Mechanical pain threshold, ratio to pre-cisplatin baseline” value ([7]; rats, 1 hour after dosing, six experiments combined, FIG. 5) was “increases the mechanical pain threshold to control levels”. For the same compound, the Ki [8] was > 10 µM, the Ki (CB1 Receptor) was 11 ± 2.7 µM and the “Character of action at the GABA-A receptor” value [9] was “positive allosteric modulators (PAM)”. For the same compound, the GABA-induced chloride currents ([9]; co-applied with EC10 GABA) was “significantly enhanced GABA-induced currents”, the “Chloride currents, compound alone” value ([9]; without GABA) was “no effect on chloride currents by themselves” and the “Effect on allodynia, combination of DCUKA and aspirin” value ([10]; DCUKA 12.5 mg/kg plus aspirin 25 mg/kg) was “completely reverse the hyper-responsiveness”. For the same compound, the “Effect on allodynia, alone” value ([10]; DCUKA 12.5 mg/kg, 60 min before test) was “do not have any significant effect on allodynia”, the Ki (MOR (μ opiate receptor)) was > 10 µM and the “Mechanical pain threshold (paw withdrawal threshold) over days” value [11] was “no statistically significant decrease of pain threshold compared to the pre-cisplatin baseline”. For the same compound, the Ki (EP2 (Prostaglandin Rs)) was > 10 µM, the Ki (D1 (Dopamine Rs)) was > 10 µM and the Ki (5-HT2B (Serotonin Rs)) was > 10 µM. For the same compound, the Ki [12] was > 10 µM.
